# Reference: patent US20150072929A1, “Pharmaceutical composition comprising a mixture of carboxylated oligopeptides” (priority 2013, published 2015)
# Columns and labels:
# HeLa-2 cells = test: Anti-cancer activity in cell culture, MAD and cytopathic activity; type: cell-based; conditions: minimum amount causing degeneration of 90-95% of the cells, five days
# Procedure: The anti-cancer activity of MPs. The determination of the anti-cancer activity of Anticanum in a cell culture was made in a culture of HeLa-2 cells. For this purpose, 20-120 mcg of MPs per ml of medium were added to the 199 medium. (See Table 2.) A culture without MPs in it was used as a control. Cultures were observed daily over the course of five days.
# benzidine skin sarcoma = test: Benzidine skin sarcoma in Barbados mice
# [1] = tested on: Ehrlich's ascites adenocarcinoma; test: Ehrlich's ascites adenocarcinoma in Barbados mice; conditions: n = 10
smiles,measurement,setting,value
CC(=O)O[C@@]12CO[C@@H]1C[C@H](O)[C@@]1(C)C(=O)[C@H](O)C3=C(C)[C@@H](OC(=O)[C@H](O)[C@@H](NC(=O)OC(C)(C)C)c4ccccc4)C[C@@](O)([C@@H](OC(=O)c4ccccc4)[C@H]21)C3(C)C [Taxotere],MAD,HeLa-2 cells,10 µg/mL
same,"Weight of Animal, After Treatment","benzidine skin sarcoma; 100 mcg/kg parenterally twice a day for two weeks, n = 7",23 ± 1.1 g
same,"Weight of Animal, Before Treatment","benzidine skin sarcoma; baseline, n = 7",27 ± 2 g
same,Mice died,"benzidine skin sarcoma; during treatment, n = 7",2
same,Animal Survival,benzidine skin sarcoma; n = 10,28 ± 1.1 days
same,"Time of Death of Animals after the First Injection, Average Value, Experimental Animals",[1]; IP,14 ± 1 days
same,"Time of Death of Animals after the First Injection, Average Value, Experimental Animals",[1]; IV,15 ± 1 days
